Data: PubChem BioAssay AID1996
≈ marks a conversion by molar mass, not a printed value.

settings: buffer; pH 7.4; 200.0 µM

Row | Compound | solubility kinetic [µg/mL]
1 | COc1ccccc1CN1CCc2c([nH]c3ccccc23)C1 | 33.1 (≈ 113 µM)
2 | Cc1ccccc1NC(=S)N/N=C/c1ccc(O)cc1O | > 45.2
3 | COc1ccc(C(=O)O/N=C(\N)c2ccccn2)cc1[N+](=O)[O-] | 2.6 (≈ 8.22 µM)
4 | Cc1ccc(NC(=O)c2cc3cc(OC(F)(F)F)ccc3[nH]2)cc1 | < 0.4
5 | COc1ccc(NC(=S)N2CCN(c3ccccc3)CC2)c(OC)c1 | 2.6 (≈ 7.27 µM)
6 | O=C(CN1C(=O)C2(OCCO2)c2cc(Br)ccc21)NO | 46.7 (≈ 136 µM)
7 | Cc1ccc(NC2=CC(=O)CC(C)(C)C2)cc1Cl | 16.2 (≈ 61.4 µM)
8 | O=C(NCCCNC(=O)c1cnccn1)c1cccc(F)c1 | 40.2 (≈ 133 µM)
9 | CN(Cc1ccc(F)cc1)C(=O)CN1C(=O)c2ccccc2S1(=O)=O | 49 (≈ 135 µM)
10 | CC1CCc2sc(C(=O)Nc3ccc(C(N)=O)cc3)cc2C1 (stereo not given) | 3.4 (≈ 10.8 µM)
11 | Cc1cccc(CCNCc2cc3cc(C)cc(C)c3[nH]c2=O)c1 | 42.5 (≈ 133 µM)
12 | N#CCc1ccc(OC(=O)Nc2ccccc2)cc1 | 36.4 (≈ 144 µM)
13 | CCc1nc2ccccc2c(C(=O)NCc2ccccc2)c1C | 33.9 (≈ 111 µM)
14 | COc1ccc(-c2cc3ccccc3[nH]2)cc1 | 1.4 (≈ 6.27 µM)
15 | O=Cc1c(N2CCSCC2)nc2ccccn2c1=O | > 41.3
16 | C=CCN1C(=O)c2ccc(C(=O)N3CCC(C(N)=O)CC3)cc2C1=O | 47.9 (≈ 140 µM)
17 | Cn1c(=O)oc2cc(NC(=O)CCl)ccc21 | 24.2 (≈ 101 µM)
18 | NC(=O)C1CCN(C(=O)C2CC(=O)N(c3ccc(F)cc3)C2)CC1 (stereo not given) | 26.5 (≈ 79.5 µM)
19 | COc1ccc(OC)c(/C=C/c2nc3ccccc3[nH]c2=O)c1 | 3.1 (≈ 10.1 µM)
20 | CCN(Cc1ccncc1)C(=O)Cc1cccs1 | > 39.1
21 | Cc1ccccc1NC(=O)NC1(C(=O)N2CCC(O)CC2)CCCCC1 | 44.1 (≈ 123 µM)
22 | Cc1[nH]c2ccccc2c1C(=O)C(=O)N1CCN(C(=O)c2ccco2)CC1 | > 54.8
23 | COc1ccc(C(=O)N2CCN(c3ncccn3)CC2)cc1[N+](=O)[O-] | 50.5 (≈ 147 µM)
24 | CN(C(=O)CN1CCN(c2ccc([N+](=O)[O-])cn2)CC1)c1ccccc1 | > 53.3

Row | Compound | solubility kinetic [µg/mL]
25 | CCOC(=O)C1CCN(C(=O)Nc2c(-c3ccccc3)noc2C)CC1 | 52.1 (≈ 146 µM)
26 | CC(CCc1ccccc1)NC(=O)C(=O)c1c[nH]c2ccccc12 (stereo not given) | 0.9 (≈ 2.81 µM)
27 | Cc1nc(SCC(=O)O)c(C#N)c2c1CCCC2 | > 39.3
28 | O=C(O)c1ccccc1-c1ccccc1C(=O)Nc1ccc(OC(F)(F)F)cc1 | > 60.2
29 | CC1(/[N+]([O-])=C/c2cccc(Cl)c2)CCCCC1=O (stereo not given) | 36.2 (≈ 136 µM)
30 | CS(=O)(=O)Nc1ccccc1C(=O)NCCSc1ccc(Cl)cc1 | 33.8 (≈ 87.8 µM)
31 | Cc1ccc(-n2c(SCC(=O)N(C)C3CCS(=O)(=O)C3)nc3ccccc3c2=O)c(C)c1 (stereo not given) | > 70.7
32 | COc1ccc2c(c1)nc(CN1CCN(CCO)CC1)n2C | > 45.7
33 | O=C(Cc1ccsc1)Nc1ccccc1F | > 35.3
34 | COc1ccccc1N1C(=O)C(Cl)=C(N2CCCC2)C1=O | 9.4 (≈ 30.6 µM)
35 | COc1ccccc1CC(=O)NCCc1c[nH]c2ccccc12 | 44.9 (≈ 146 µM)
36 | Cc1ccc(-c2noc(CCC(=O)NC3CC3)n2)cc1 | > 40.7
37 | Cc1cc(NS(=O)(=O)c2ccc(NC(=O)c3ccc(F)cc3)cc2)nc(C)n1 | > 60.1
38 | O=C(Oc1cc(=O)oc2c1c(=O)n1c3c(cccc23)CC1)c1ccccc1 | 33 (≈ 91.8 µM)
39 | COCCNC(=S)N1CCN(Cc2ccc3c(c2)OCO3)CC1 | 47 (≈ 139 µM)
40 | O=C(CNC(=O)c1ccco1)NCc1ccc2c(c1)OCO2 | 34.6 (≈ 114 µM)
41 | CSc1ncccc1C(=O)OCC(=O)N1CCCC1 | > 42.1
42 | Cc1ccc(NC(=O)CCc2ccc(C)o2)c(Br)c1 | 4.2 (≈ 13 µM)
43 | O=C(COc1ccc(Cl)cc1Cl)OCC(=O)c1ccc[nH]1 | 8.2 (≈ 25 µM)
44 | Cc1ccc2nsnc2c1NC(=O)Cc1ccc(Cl)cc1 | 0.7 (≈ 2.2 µM)
45 | COc1ccc(CCNS(=O)(=O)c2cccc([N+](=O)[O-])c2)cc1 | 42.8 (≈ 127 µM)
46 | Clc1ccc(N2CCN(Cc3ccc(Br)o3)CC2)cc1 | 1.4 (≈ 3.94 µM)
47 | CNc1nc(NC#N)nc(SC)n1 | 24.9 (≈ 127 µM)
48 | Cc1ccc(C(=O)CNc2cc(C)ccc2C)cc1 | < 0.5

Row | Compound | solubility kinetic [µg/mL]
49 | Cc1ccc(-n2c(C)cc(C(=O)CN3CCOCC3)c2C)cc1C | > 49
50 | COc1ccccc1OC(C)C(=O)N1CC(=O)Nc2ccccc21 (stereo not given) | > 49
51 | COc1cccc(-c2ocnc2C(=O)Nc2ccc3c(c2)CCC3)c1 | < 0.4
52 | COc1ccc(NC(=O)CSc2ccc(NC(C)=O)cc2)cc1S(=O)(=O)N1CCOCC1 | > 71.9
53 | c1ccc(-c2csc(Nc3cccnc3)n2)cc1 | 2.2 (≈ 8.68 µM)
54 | O=C(O)c1ccc(SCc2ccccc2)nc1 | > 36.8
55 | CCn1c(SCc2ccccc2)nc2c(c1=O)SCC2 | 13.5 (≈ 44.3 µM)
56 | CCC1(C)Cc2nc(Cl)c(C#N)cc2CO1 (stereo not given) | 34.2 (≈ 144 µM)
57 | COc1ccccc1NS(=O)(=O)c1cc(NC(=O)COc2ccccc2)ccc1N1CCOCC1 | 8.1 (≈ 16.3 µM)
58 | COc1ccccc1OCCn1c(=O)n(C)c2ccccc21 | 42.2 (≈ 141 µM)
59 | O=C(O)CCSc1nnc(SCC(=O)NC2CCS(=O)(=O)C2)s1 (stereo not given) | > 59.6
60 | CCN1CCc2c(OCC(=O)N3CCCc4ccccc43)cccc2C1=O | > 54.7
61 | COc1ccc(CCC(C)NCCc2ccc(Cl)cc2Cl)cc1 (stereo not given) | 21.4 (≈ 60.7 µM)
62 | COc1cc2c(cc1OC)-c1cc(Nc3cccc(C)c3)nc(=O)n1CC2 | 2.5 (≈ 6.88 µM)
63 | Cc1ccc(Cl)cc1NC(=O)C1CC(=O)N(C(C)C)C1 (stereo not given) | 34.7 (≈ 118 µM)
64 | Br.CC(C)(C)c1cc(C2=CSC3=NCCN23)cc(C(C)(C)C)c1O | 10.7
65 | Cc1ccc(C)c(S(=O)(=O)Nc2cc(C)on2)c1 | > 39.9
66 | CC(C(=O)Nc1ccc(C#N)cc1)N(C)CC(=O)Nc1cccc(F)c1 (stereo not given) | 5.9 (≈ 16.6 µM)
67 | Cc1cccc(C)c1NC(=O)c1cnn(-c2ccccc2)c1C | > 45.8
68 | Cc1ccc(NC(=O)CCN2CCOCC2)cc1C | > 39.4
69 | CC1CCCC(NC(=O)CCNC(=O)c2ccc([N+](=O)[O-])cc2)C1C (stereo not given) | > 52.1
70 | Cc1cnc(=O)[nH]c1SCc1cccc(C(F)(F)F)c1 | 8.3 (≈ 27.6 µM)
71 | O=C(Nc1ccccc1N1CCOCC1)c1ccncc1 | > 42.5
72 | Cl.O=C(CCCN1CCOC(c2ccccc2)C1)c1ccc(F)cc1 (stereo not given) | 50.3

Row | Compound | solubility kinetic [µg/mL]
73 | N#Cc1c(-c2ccccc2)nc2n1CCS2 | 7.3 (≈ 32.1 µM)
74 | CCN(CC)c1ccc(NC(=S)NCC2CCCO2)cc1 (stereo not given) | 34.1 (≈ 111 µM)
75 | O=C(OCc1ccc(F)cc1)c1cccnc1Cl | 21.7 (≈ 81.7 µM)
76 | O=C(Nc1ccccn1)c1sc2cccc(F)c2c1Cl | < 0.3
77 | COc1cccc2cc(C(=O)NC(C)c3ccccc3)c(=O)oc12 (stereo not given) | < 0.7
78 | CC1(C)CC(=O)C=C(NNC(=O)c2cccnc2)C1 | > 38.9
79 | O=C(Nc1ccccc1)Nc1nc(-c2ccc(F)c(F)c2)cs1 | < 0.2
80 | O=C(CCSc1ccc(Cl)cc1)NCc1ccccn1 | 40.8 (≈ 133 µM)
81 | CN(C)CC#CCn1c2ccccc2c2ccccc21.Cl | > 44.8
82 | Cc1ccc(NC(=O)CN2CCN(Cc3ccccc3)CC2)cc1 | > 48.5
83 | COc1ccc(C(=O)CN2C(=O)COc3ccccc32)cc1 | 43.1 (≈ 145 µM)
84 | C=Cn1ccnc1P(=S)(c1ccc(Cl)cc1)c1nccn1C=C | 46.9 (≈ 130 µM)
85 | COc1ccc(CCC(=O)NCC2CCCCC2)cc1OC | > 45.8
86 | O=c1cc(C(F)(F)F)[nH]c2c(OC(F)(F)F)cccc12 | > 44.6
87 | O=C1CSC(c2cccnc2)N1CC1CC1 (stereo not given) | > 35.1
88 | Clc1cccc(Nc2nc(-c3ccncc3)nc3ccccc23)c1 | < 0.2
89 | O=C1CCCN1CCCNc1ncnc2sccc12 | > 41.5
90 | COc1ccccc1/C=C/c1nc2ccc(OC(C)=O)cc2c(=O)o1 | < 0.7
91 | CCC(=O)N(Cc1cc(=O)[nH]c2ccccc12)c1ccccc1OC | > 50.5
92 | CCOc1ccc(NC(=O)CNC(=O)c2cccs2)cc1 | 7.8 (≈ 25.6 µM)
93 | CCOc1ccc(C(=O)CCC(=O)N2CCN(c3ccc(O)cc3)CC2)cc1 | 16.6 (≈ 43.4 µM)
94 | COc1ccccc1CNC(=O)c1cc(C)nc2ccccc12 | 41.8 (≈ 136 µM)
95 | CCC(C)[C@H](NC(=O)Nc1ccc(C)cc1C)C(=O)O (stereo not given in full) | 31.8 (≈ 114 µM)
96 | O=C(NC1CCN(C(=O)Nc2cccc(Cl)c2)CC1)c1ccco1 | 46.1 (≈ 133 µM)

Row | Compound | solubility kinetic [µg/mL]
97 | O=C(CCCc1nc2ccccc2s1)NCc1cccnc1 | > 46.7
98 | CCC(=O)c1ccc(OCC(=O)N2CCN(CC(=O)Nc3ccc(C)cc3)CC2)cc1 | > 63.5
99 | COc1ccc(-c2csc(Nc3cccc(C)n3)n2)cc1 | < 0.2
100 | COc1ccc(OC(C)C(=O)NCC2CCCO2)cc1 (stereo not given) | > 41.9
101 | O=C1CN=C(c2ccccc2)c2cc([N+](=O)[O-])ccc2N1 | > 42.2
102 | COCCCNc1nc(N)c([N+](=O)[O-])c(NCC2CCCO2)n1 (stereo not given) | > 49
103 | COc1ccccc1C(=O)NC1CC(C)(C)NC(C)(C)C1 | > 43.6
104 | COc1cc(C(=O)OCC(=O)NC2CCCCC2)cc(OC)c1OC | > 52.7
105 | O=C(Oc1ccc(C(=S)N2CCOCC2)cc1Cl)c1ccccc1F | 9.9 (≈ 26.1 µM)
106 | CNCCCC1c2ccccc2C=Cc2ccccc21.Cl | > 45
107 | O=C1CSC(c2ccccc2)N1Cc1ccccn1 (stereo not given) | > 40.6
108 | CC12CC3(C)CC(C)(C1)CC(C(N)=O)(C2)C3 | 31 (≈ 140 µM)
109 | COc1ccccc1C1CC(=O)Nc2cc(C)c(C)cc21 (stereo not given) | < 0.6
110 | O=[N+]([O-])c1ccc2nc(-c3ccncc3)[nH]c2c1 | 8 (≈ 33.3 µM)
111 | CC(=O)Oc1ccc(C(=O)Nc2ccc3c(c2)OCCO3)cc1 | 38.9 (≈ 124 µM)
112 | COc1ccccc1CNC(=O)CC(C)c1ccccc1 (stereo not given) | 39.8 (≈ 140 µM)
113 | COCCNc1cnn(-c2ccccc2)c(=O)c1Cl | > 42
114 | CCC(CC)NC(=O)c1cccc(Oc2ccccc2)c1 | 5.2 (≈ 18.4 µM)
115 | Cc1ccccc1CNC(=O)C1CCCN(c2cnccn2)C1 (stereo not given) | 44.3 (≈ 143 µM)
116 | CCOC(=O)c1cc(C#N)c(N2CCCNCC2)nc1C(F)(F)F | > 51.3
117 | O=C(CSCc1ccc(F)cc1)NCc1cccs1 | 40.2 (≈ 136 µM)
118 | COc1ccc(OCC2CCNCC2)cc1.Cl | 36.5
119 | CCOc1ccc(Nc2cc(C)nc3c(C)cccc23)cc1 | 24.5 (≈ 83.8 µM)
120 | Cc1cc2nc(-c3ccc[nH]c3=O)[nH]c2cc1C | 3.3 (≈ 13.8 µM)
